Experimental data as given in PubChem BioAssay (NCI).
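48-hour exposure; five concentrations; linearly interpolated endpoints. At the TGI there is no net growth.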

Key:
Assay in all cases: NCI tumour cell line growth inhibition, 48 h
OVCAR-3 ovarian = tested on: OVCAR-3 ovarian
SN12C renal = tested on: SN12C renal
MALME-3M melanoma = tested on: MALME-3M melanoma
MDA-N = tested on: MDA-N
A549 NSCLC = tested on: A549 NSCLC
UO-31 renal = tested on: UO-31 renal
RPMI-8226 leukemia = tested on: RPMI-8226 leukemia
NCI-H23 lung = tested on: NCI-H23 lung
SK-MEL-28 melanoma = tested on: SK-MEL-28 melanoma
BT-549 breast = tested on: BT-549 breast
TK-10 renal = tested on: TK-10 renal
HCT-15 colon = tested on: HCT-15 colon
MCF7 breast = tested on: MCF7 breast
CCRF-CEM leukemia = tested on: CCRF-CEM leukemia
U251 CNS = tested on: U251 CNS
SF-268 CNS = tested on: SF-268 CNS
K-562 leukemia = tested on: K-562 leukemia
T-47D breast = tested on: T-47D breast
UACC-62 melanoma = tested on: UACC-62 melanoma
SK-MEL-5 melanoma = tested on: SK-MEL-5 melanoma

Compound | TGI (OVCAR-3 ovarian) | TGI (SN12C renal) | TGI (MALME-3M melanoma) | TGI (MDA-N) | TGI (A549 NSCLC) | TGI (UO-31 renal) | TGI (RPMI-8226 leukemia) | TGI (NCI-H23 lung) | TGI (SK-MEL-28 melanoma) | TGI (BT-549 breast) | TGI (TK-10 renal) | TGI (HCT-15 colon) | TGI (MCF7 breast) | TGI (CCRF-CEM leukemia) | TGI (U251 CNS) | TGI (SF-268 CNS) | TGI (K-562 leukemia) | TGI (T-47D breast) | TGI (UACC-62 melanoma) | TGI (SK-MEL-5 melanoma)
O=C(NC(=S)Nc1ccc2c(c1)Sc1ccccc1O2)c1ccc([N+](=O)[O-])cc1 | > 100 µM | > 100 µM | > 100 µM | > 100 µM | > 100 µM | > 100 µM | > 100 µM | > 100 µM | > 100 µM | > 100 µM | > 100 µM | > 100 µM | > 100 µM | > 100 µM | > 100 µM | > 100 µM | > 100 µM | > 100 µM | > 100 µM | > 100 µM
CCc1c(CN)c(CC)c(CNC2=NCCN2)c(CC)c1CNC1=NCCN1 | > 100 µM | > 100 µM | > 100 µM | > 100 µM | > 100 µM | > 100 µM | > 100 µM | > 100 µM | > 100 µM | > 100 µM | > 100 µM | > 100 µM | > 100 µM | > 100 µM | > 100 µM | > 100 µM | > 100 µM | > 100 µM | > 100 µM | > 100 µM
Cn1c(NNc2ccccc2)cc(=O)[nH]c1=O | 61.6 µM | > 100 µM | > 100 µM | 45.4 µM | > 100 µM | > 100 µM | > 100 µM | > 100 µM | > 100 µM | > 100 µM | > 100 µM | > 100 µM | > 100 µM | 53 µM | > 100 µM | > 100 µM | > 100 µM | > 100 µM | > 100 µM | 70.1 µM
Cc1c(C)c(C)c(CC2(C)CSC2)c(CC2(C)CSC2)c1C | > 100 µM | > 100 µM | > 100 µM | > 100 µM | > 100 µM | > 100 µM | > 100 µM | – | > 100 µM | > 100 µM | > 100 µM | > 100 µM | > 100 µM | > 100 µM | > 100 µM | > 100 µM | > 100 µM | > 100 µM | > 100 µM | > 100 µM
CCOC(=O)CCC(NC(=O)Cc1ccc(Nc2nc3ccccc3nc2-c2cccs2)cc1)C(=O)OCC (centres undefined) | > 100 µM | > 100 µM | > 100 µM | > 100 µM | > 100 µM | > 100 µM | > 100 µM | > 100 µM | > 100 µM | > 100 µM | 84.5 µM | > 100 µM | > 100 µM | > 100 µM | > 100 µM | > 100 µM | > 100 µM | 66.9 µM | > 100 µM | > 100 µM
O=P1(Oc2ccccc2)N=P(c2ccccc2)(c2ccccc2)C=C(c2ccc(Cl)cc2)N1 (centres undefined) | 13.6 µM | 32.4 µM | 29.6 µM | 22.8 µM | 16.1 µM | 25.8 µM | 9.55 µM | 32.2 µM | – | 29.6 µM | 26.8 µM | 21.9 µM | 9.31 µM | 26.6 µM | 18.8 µM | 26.2 µM | 22.2 µM | 24.7 µM | 27.5 µM | 10.2 µM
CC(=O)Nc1ccc(NS(=O)(=O)c2ccc3nc(C)n(NS(=O)(=O)c4ccc(NC(C)=O)cc4)c(=O)c3c2)cc1 | > 100 µM | > 100 µM | > 100 µM | > 100 µM | > 100 µM | > 100 µM | > 100 µM | > 100 µM | > 100 µM | > 100 µM | > 100 µM | > 100 µM | > 100 µM | > 100 µM | > 100 µM | > 100 µM | > 100 µM | > 100 µM | > 100 µM | > 100 µM
CC(=O)N(C)c1ccc(N=CN(C)C)cc1 | > 100 µM | > 100 µM | > 100 µM | > 100 µM | > 100 µM | > 100 µM | > 100 µM | > 100 µM | > 100 µM | > 100 µM | > 100 µM | > 100 µM | > 100 µM | > 100 µM | > 100 µM | > 100 µM | > 100 µM | > 100 µM | > 100 µM | > 100 µM
O=Cc1c2n(c3ccccc13)N[C@@](Cc1ccc(O)cc1)(C(=O)O)C2 | > 100 µM | – | > 100 µM | > 100 µM | > 100 µM | > 100 µM | > 100 µM | > 100 µM | > 100 µM | > 100 µM | > 100 µM | > 100 µM | > 100 µM | > 100 µM | > 100 µM | > 100 µM | > 100 µM | > 100 µM | > 100 µM | > 100 µM
Oc1ccc2c(c1)CCc1c-2n(CCN2CCOCC2)c2ccc(O)cc12 | > 100 µM | > 100 µM | 75.6 µM | > 100 µM | – | 34.9 µM | > 100 µM | 90.3 µM | > 100 µM | > 100 µM | > 100 µM | > 100 µM | > 100 µM | > 100 µM | > 100 µM | > 100 µM | > 100 µM | > 100 µM | 55.5 µM | 39 µM
Nc1ccc2nc3c(nc2c1)C(=O)c1ccccc1-3 | > 100 µM | > 100 µM | > 100 µM | > 100 µM | > 100 µM | – | > 100 µM | > 100 µM | > 100 µM | > 100 µM | > 100 µM | > 100 µM | > 100 µM | > 100 µM | > 100 µM | > 100 µM | > 100 µM | > 100 µM | > 100 µM | > 100 µM
CC(=O)OCC(OC(C)=O)C(OC(C)=O)C(/C=N\Nc1nc2ccccc2c(=O)[nH]1)=N\Nc1nc2ccccc2c(=O)[nH]1 (centres undefined) | > 100 µM | > 100 µM | > 100 µM | > 100 µM | > 100 µM | > 100 µM | > 100 µM | > 100 µM | > 100 µM | > 100 µM | – | > 100 µM | > 100 µM | > 100 µM | > 100 µM | > 100 µM | > 100 µM | > 100 µM | > 100 µM | > 100 µM
